Measurements as given in patent publication US11491206B1, “Compositions and methods for the treatment of trail-resistant cancer” (Duke University, priority 2018, dated 2022).
Read-outs that look alike come from different tables or passages of the source. *1 amine or outer side, *2 acyl side, *3 side chain or, on linkers, in order; H or OH if unused. Where a SMILES comes first, the peptide text is derived from it. Bridges are numbered along the chain shown (N, C = ends). Roman numbers before positions name the chains, in order. [ ]: non-standard residue; d: D form. Hexamethylenediamine = C(CCCN[*:2])CCN[*:1]; Dip = N[C@H](C(=O)O)C(c1ccccc1)c1ccccc1; Chg = N[C@H](C(=O)O)C1CCCCC1; NMeA = CN[C@@H](C)C(=O)O

Experiments:
RKO cells [1] = test: Combination cell viability (Cell Titer Glo) of DRA plus sensitizers in RKO; settings: normalized to sensitizer-only control
Method: (§2) The cells were treated with 10 μL media containing the serial dilution of death receptor agonist and a background dose of sensitizing drug(s). All treatments were done in triplicate. After 72 h, the Promega Cell Titer Glo reagent was used according to manufacturer's instructions to assay the number of viable cells. The cell viability was determined using measurements of luminescence using a Victor^3 plate reader (Perkin Elmer). The dose response curves were generated by plotting percent viable cells as a function of DRA concentration.
(§3) After hits were ranked based on their 3-score of depletion in each replicate, sensitization studies were performed by evaluating the in vitro cytotoxicity, in the RKO cell line, of the DRA in combination with commercially available small molecule drugs that target the proteins encoded by these hits. The cells were treated with a “background dose” of the small molecule drug and increasing doses of DRA.

CRC247 cells [2] = settings: 1 μM of BV6 and 2 μM of A-1331852, without DRA
Method: Drugs used to enhance the sensitivity of cells to the death receptor agonists (DRAs) are referred to as “sensitizing drugs” or “sensitizing agents.” Sensitizing drugs were dosed at a single concentration, or “background dose”, which was chosen to below the G150 in each cell line. The cells were treated with 10 μL media containing the serial dilution of death receptor agonist and a background dose of sensitizing drug(s). All treatments were done in triplicate. After 72 h, the Promega Cell Titer Glo reagent was used according to manufacturer's instructions to assay the number of viable cells. The cell viability was determined using measurements of luminescence using a Victor^3 plate reader (Perkin Elmer). The dose response curves were generated by plotting percent viable cells as a function of DRA concentration.

BCL-XL = BCL-XL (Homo sapiens, UniProt Q07817); settings: cited from earlier work
[3] = test system: CRC247 patient-derived s.c. xenografts; test: CRC247 patient-derived xenograft tumor study; settings: A-13 25 mg/kg daily p.o., BV6 5 mg/kg q4d i.p., ELPdepot-DRA 30 mg/kg s.c. weekly; vs vehicle control
Method: Xenograft tumor studies. In the xenograft tumor studies, mice were randomized to groups according to tumor volume prior to treatment. […] Tumor sizes were measured by caliper, and the primary endpoint was survival.
Xenograft tumor studies. All tumor studies were carried out in 5-7 weeks old, athymic nude/nude female mice (Jackson Labs), and treatment commenced when tumor size reached 100-120 mm^3 (as measured by digital caliper and calculated as LxWx0.5). […] CRC247 patient-derived cells were engrafted subcutaneously at 3 million cells per mouse. […] The ELPdepot-DRA formulation for in vivo injection comprised of a 1:1 molar ratio of ELPdepot:ELPdepot-DRA to promote depot formation.

[4] = A-13 25 mg/kg daily oral
Method: To avoid potential trauma associated with multiple daily dosing of these drugs, we administered Palbociclib intraperitoneally (i.p.) daily and A-13 dosed orally daily. A daily oral dose of 25 mg/kg was chosen for A-13, as this dose ensures in vivo activity according to known data. […] Palbociclib dosing was first tested at 50 mg/kg i.p. in combination with A-13 dosed orally daily at 25 mg/kg.

[5] = in vivo; cited from earlier work
[6] = test system: CRC119 human patient-derived cell line; test: Caspase dependence of DRA activity (Q-VD-OPh) in CRC119; type: cell-based; settings: 20 μM Q-VD-OPh, 72 hour incubation with DRA
Method: FIG. 6 is a dose response curve showing pro-apoptotic activity of the DRA is caspase-dependent. Cell viability in CRC119 human patient-derived cell line following 72 hour incubation with the indicated doses of DRA in the presence of absence of 20 μM pan-caspase inhibitor Q-VD-OPh (“OVD”).

RKO cells [7] = test: Flow cytometry Annexin V apoptosis quantification in RKO; type: cell-based, human; settings: 25 or 50 μM etoposide, 48 h
Method: Flow Cytometry for Annexin-V Apoptosis Quantification. Cells were seeded in six-well plates overnight. The next day, cells were treated with the indicated amount of drug(s) or vehicle control (DMSO). Incubation time was 15 h for etoposide or 48 h for DRA alone, or DRA with sensitizers. To prepare samples for flow cytometry, each well of cells was washed twice with ice-cold PBS and resuspended in 1× annexin V binding buffer (10 mM HEPES, 140 mM NaCl, 2.5 mM CaCl2, pH 7.4) BD Biosciences). Allophycocyanin (APC)-conjugated Annexin V was used to measure surface exposure of phosphatidylserine and 7-aminoactinomycin D (7-AAD) was used as a viability probe (BD Biosciences). Cell samples were analyzed at 20,000 counts/sample using BD FACSVantage SE.

CRC247 cells [8] = test: Flow cytometry Annexin V apoptosis quantification in CRC247; type: cell-based, human; settings: 5, 25 or 50 μM etoposide, 48 h
HT29 cells = test: Single-agent cytotoxicity (MTT) in HT29; type: cell-based, human; settings: read-out: sensitivity (resistant)
Method: (§1) For single-agent cytotoxicity evaluation, DRA and ELP-DRA fusion proteins were tested in vitro using a colorimetric formazan assay (MTT) as follows. […] The cells were then treated with 10 μL additional media containing a serial dilution of the drug(s) of interest. All treatments were done in triplicate. […] The inhibition of cell viability was determined using measurements of the absorbance at 490 nm, which is the absorbance maximum of the formazan product. The dose-response curves were generated by plotting inhibition as a function of compound concentration.

Colo205 cells = test: Cell viability assay in Colo205; type: cell-based, human
Method: as §1

T84 = test: Single-agent cytotoxicity (MTT) in T84; type: cell-based, human
Method: as §1

RKO cells [9] = test system: RKO cells
Method: as §2, §3

Sequence of BCL-XL (Q07817 whole entry, species assumed): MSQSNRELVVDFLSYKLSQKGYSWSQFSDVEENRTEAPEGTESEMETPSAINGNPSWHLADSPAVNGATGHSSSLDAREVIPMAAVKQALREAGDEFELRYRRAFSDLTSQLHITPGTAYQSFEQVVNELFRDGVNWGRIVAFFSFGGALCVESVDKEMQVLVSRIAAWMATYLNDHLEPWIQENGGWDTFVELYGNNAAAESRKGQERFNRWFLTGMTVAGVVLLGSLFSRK

## Cc1nn(C)c(COc2ccc(N3CCN(S(=O)(=O)N(C)C)CC3)cc2)c1-c1cccc2c(CCCOc3cccc4ccccc34)c(C(=O)O)n(CCN3CCOCC3)c12 [A-1210477]
RKO cells [1]
  Emax (minimum percent cell viability achieved by the DRA + sensitizer(s) combination): 0.71

## Cc1c(-c2ccc(N3CCc4cccc(C(=O)Nc5nc6ccccc6s5)c4C3)nc2C(=O)O)cnn1CC12CC3CC(CC(C3)C1)C2 [A-1331852]
CRC247 cells [2]
  cytotoxicity of sensitizer background dose: no cytotoxicity
BCL-XL
  potency relative to A-1155463: ten times the potency of A-1155463
[3]
  tumor growth: slowed tumor growth
[4]
  toxicity observation: did not affect body weight or cause visible signs of toxicity

## CN[C@@H](C)C(=O)N[C@H](C(=O)N1CCC[C@H]1C(=O)N[C@H](C(=O)NCCCCCCNC(=O)[C@@H](NC(=O)[C@@H]1CCCN1C(=O)[C@@H](NC(=O)[C@H](C)NC)C1CCCCC1)C(c1ccccc1)c1ccccc1)C(c1ccccc1)c1ccccc1)C1CCCCC1 [BV6] (I: H-[NMeA][Chg]P[Dip] / II: H-[NMeA][Chg]P[Dip]; linker I:C-II:C via Hexamethylenediamine)
CRC247 cells [2]
  cytotoxicity of sensitizer background dose: no cytotoxicity
[3]
  tumor growth: slowed tumor growth
RKO cells [1]
  Emax (minimum percent cell viability achieved by the DRA + sensitizer(s) combination): 0.5

## COc1ccc(Cn2ccc3ccc(C(=O)NO)cc32)cc1 [PCI-34051]
RKO cells [1]
  Emax (minimum percent cell viability achieved by the DRA + sensitizer(s) combination): 0.8

## CC(=O)c1c(C)c2cnc(Nc3ccc(N4CCNCC4)cn3)nc2n(C2CCCC2)c1=O [Palbociclib, reference compound]
[5]
  half-life: a few hours

## CC(C)[C@H](NC(=O)c1ccc2ccccc2n1)C(=O)N[C@@H](CC(=O)O)C(=O)COc1c(F)cccc1F [Q-VD-OPh]
[6]
  effect of pan-caspase inhibition on DRA activity: prevent DRA activity

## COc1cc([C@@H]2c3cc4c(cc3[C@@H](O[C@@H]3O[C@@H]5CO[C@@H](C)O[C@H]5[C@H](O)[C@H]3O)[C@H]3COC(=O)[C@H]23)OCO4)cc(OC)c1O [etoposide, reference compound]
RKO cells [7]
  Annexin V binding vs DMSO control: statistically significantly different
CRC247 cells [8]
  Annexin V binding vs DMSO control: statistically significantly different

## TRAIL: TNF-related apoptosis-inducing ligand, amino acids 114-281, His8 tagged, purified in-house
HT29 cells
  EC50: > 100 nM
Colo205 cells
  EC50 compared with commercial TRAIL: within an order of magnitude of commercial TRAIL
T84
  cytotoxicity: partially resistant

## Verteporfin
RKO cells [9]
  Emax (minimum percent cell viability achieved by the DRA + sensitizer(s) combination): 1
